We go through eight molecules from patent US7166440B2, “2,4,5-trichlorophenoxyalkyl carboxylic acid and a method for determining dioxins using the same” (priority 2003, dated 2007).

The structures appear in SMILES notation.

The test system of one data set is monoclonal antibody of clone C-1 (anti-dioxin antibody). Briefly: Competitive EIA: inhibition of binding of clone C-1 monoclonal antibody to solid-phase antigen by free dioxin. On the set-up: species or system mouse. Particulars: solid-phase antigen * (haptenized product of 6-(2,4,5-trichlorophenoxy) hexanoic acid amide derivative IIa), dioxin compound 5×10^−7 M. As for the experimental part:
(§1) Using various monoclonal antibodies, the specificity of the monoclonal antibodies to dioxin isomers was examined. The monoclonal antibodies were prepared in the following manner. An antibody-producing cell was injected into the abdominal cavity of a pristane-pretreated mouse. Th ascites fluid in the abdominal cavity caused by the growth of the cells was collected, and then a monoclonal antibody was purified by affinity chromatography using a protein G-Sepharose (manufactured by BIO-RAD Co.) as a carrier. Using three antibody-producing clones C-1, C-2 and C-3, respective monoclonal antibodies were prepared. The clones C-1, C-2 and C-3 produce monoclonal antibodies with respect to dibenzodioxin having chlorine atom at the 2-, 3-, 7-, and 8-positions.
(§2) To evaluate the specificity of the monoclonal antibody was performed according to the following principles. A solid-phase antigen (competitor) and a free dioxin (ligand) are allowed to compete with each other with respect to a free monoclonal antibody (anti-dioxin antibody). If the reactivity of the monoclonal antibody and the dioxin is higher than that of the monoclonal antibody and the solid-phase antigen, the binding of the monoclonal antibody to the solid-phase antigen is reduced. This reduction of the binding of the monoclonal antibody to the solid-phase antigen can be measured by color development method. This phenomenon can be applied to evaluate the specificity.
(§3) First, the immune antigen or the compound (IIa) conjugated with BSA that was produced in Example 2 was diluted with PBS to 1 μg/ml, and divided into each well of a 96-well assay plate (manufactured by Costar, Cat. No. 3590) in an amount of 50 μl. Then, the plate was sealed and allowed to stand at room temperature for one hour. Then, each well was washed with PBS containing 0.005% of Tween 20 three times. Next, 300 μl of Block Ace (manufactured by Snow Brand Milk Products Co., Ltd.) diluted with distilled water to a concentration of 25% was supplied to each well, and the plate was sealed and allowed to stand at 37° C. for two hours. Each well was washed with PBS containing 0.005% of Tween 20 three times. Then, a 25 μl of the dioxin compound solution of a final concentration of 5×10^−7 M was added to each well. The dioxin compound solution was prepared by diluting the dioxin with a dilution solvent comprising 20% DMSO and 0.01% of Triton X100. As controls, a dilution solvent in an amount of 25 μl was added to each well. Immediately after the addition of the dioxin compound solution or the dilution solvent, 25 μl of an antibody solution diluted with PBS containing 1 mg/ml of BSA was added to each well. The assay plate was stand at room temperature for one hour with slightly shaking.
(§4) After washing with PBS containing 0.005% of Tween 20 three times, 50 μl of the diluted HRP-labeled goat anti-mouse IgG (H+L) antibody (produced by affinity purification) was added to each well. The diluted HRP-labeled antibody was prepared by diluting the purchased HRP-labeled antibody to 2000 times as much with 10% Block Ace. The plate was allowed to stand at room temperature for one hour, followed by washing with PBS containing 0.005% of Tween 20 three times. Then, 50 μl of a HRP substrate, TMB (manufactured by KPL Co., Ltd.), was added to each well and allowed to stand at room temperature for 5 to 10 min. Then, 5 μl of a 1 M phosphate solution was added to each well, and the absorbance at a wavelength of 455 nm (655 nm for the reference) was measured with a spectrophotometer for a microtiter. The reactivity was evaluated by obtaining the absorbance (B0) at the time when the dioxin compound is not added, which is a control (diluent) and the absorbance (B) at the time when the dioxin compound is added. The inhibition rate was measured based on the following equation. Inhibition rate={(B0−B)/B0}×100 (%)
(§5) Evaluation was such that the larger this inhibition rate is, the higher the specificity of the anti-dioxin antibody to the dioxin compound.
`Clc1cc2oc3cc(Cl)c(Cl)c(Cl)c3c2c(Cl)c1Cl` [1,2,3,7,8,9-HxCDF] yielded an Inhibition rate of 34.7%.

In the case of `Clc1cc2oc3cc(Cl)c(Cl)c(Cl)c3c2cc1Cl` [1,2,3,7,8-PeCDF], the Inhibition rate was determined as 27.1%.

Staying with this data set, now noted: solid-phase antigen immunogen 1, dioxin compound final concentration 5×10^−7 M.
In turn, `Clc1cc2oc3cc(Cl)c(Cl)c(Cl)c3c2c(Cl)c1Cl` [1,2,3,7,8,9-HxCDF] showed an Inhibition rate of 26.2%.

Turning to `Clc1cc2oc3cc(Cl)c(Cl)c(Cl)c3c2cc1Cl` [1,2,3,7,8-PeCDF], the Inhibition rate was 11.8%.

Another data set has as its system monoclonal antibody of clone C-2 (anti-dioxin antibody). The experiment in a line: Competitive EIA: inhibition of binding of clone C-2 monoclonal antibody to solid-phase antigen by free dioxin. The arrangement: species or system mouse. The conditions noted are these: solid-phase antigen * (haptenized product of 6-(2,4,5-trichlorophenoxy) hexanoic acid amide derivative IIa), dioxin compound 5×10^−7 M. As for the experimental part: as §1, §2, §3, §4, §5
In turn, `Clc1cc2oc3cc(Cl)c(Cl)c(Cl)c3c2c(Cl)c1Cl` [1,2,3,7,8,9-HxCDF] yielded an Inhibition rate of 68.1%.

In turn, `Clc1cc2oc3cc(Cl)c(Cl)c(Cl)c3c2cc1Cl` [1,2,3,7,8-PeCDF] registered an Inhibition rate of 68.6%.

Still in this data set, the particulars now being: solid-phase antigen immunogen 2, dioxin compound final concentration 5×10^−7 M.
Molecule `Clc1cc2oc3cc(Cl)c(Cl)c(Cl)c3c2c(Cl)c1Cl` [1,2,3,7,8,9-HxCDF] had an Inhibition rate of 43.3%.

For `Clc1cc2oc3cc(Cl)c(Cl)c(Cl)c3c2cc1Cl` [1,2,3,7,8-PeCDF], the Inhibition rate stood at 17.5%.

In another data set the test system is monoclonal antibody of clone C-3 (anti-dioxin antibody). The experiment in a line: Competitive EIA: inhibition of binding of clone C-3 monoclonal antibody to solid-phase antigen by free dioxin. On the set-up: species or system mouse. Particulars: solid-phase antigen * (haptenized product of 6-(2,4,5-trichlorophenoxy) hexanoic acid amide derivative IIa), dioxin compound 5×10^−7 M. How it is done: as §1, §2, §3, §4, §5
Consider `Clc1cc2oc3cc(Cl)c(Cl)c(Cl)c3c2c(Cl)c1Cl` [1,2,3,7,8,9-HxCDF], for which the Inhibition rate was 48.1%.

For `Clc1cc2oc3cc(Cl)c(Cl)c(Cl)c3c2cc1Cl` [1,2,3,7,8-PeCDF], the Inhibition rate came to 23.2%.

Staying with this data set, now noted: solid-phase antigen immunogen 3, dioxin compound final concentration 5×10^−7 M.
For `Clc1cc2oc3cc(Cl)c(Cl)c(Cl)c3c2c(Cl)c1Cl` [1,2,3,7,8,9-HxCDF], the Inhibition rate turned out to be 10.4%.

`Clc1cc2oc3cc(Cl)c(Cl)c(Cl)c3c2cc1Cl` [1,2,3,7,8-PeCDF] showed an Inhibition rate of 0.5%.

In the next data set the test system is anti-dioxin antibody (monoclonal antibody) to 1,2,3,7,8-PeCDF.
Test: not given
Details: not given
It counts as binding, mouse. How it is done: as §3, §4
An anti-dioxin antibody (monoclonal antibody) to 1,2,3,7,8-PeCDF is used as an antibody. A haptenized product of a solid-phase antigen 6-(2,4,5-trichlorophenoxy) hexanoic acid amide derivative (IIa) and the chlorine-containing organic compounds in Tables 2 and 3 were allowed to compete with each other to this anti-dioxin antibody so that a competitive reaction was effected in the same manner as in Example 3. Then, the cross-reactivity was examined.
The molecule `c1ccc2c(c1)-c1cccc3cccc-2c13` [Fluoranthene] yielded a cross reaction below 0.1%.

The same data set, now with this note: Table 2, dioxins having TEF; solid-phase antigen (IIa); antibody to 1,2,3,7,8-PeCDF.
For the molecule `Clc1cc2oc3cc(Cl)c(Cl)c(Cl)c3c2c(Cl)c1Cl` [1,2,3,7,8,9-HxCDF], the cross reaction was found to be 42.7%.

Molecule `Clc1cc2oc3cc(Cl)c(Cl)c(Cl)c3c2cc1Cl` [1,2,3,7,8-PeCDF] gave a cross reaction of 100.0%.

Still in this data set, the particulars now being: Table 3, other chlorine-containing organic compounds and polycyclic aromatic hydrocarbons; solid-phase antigen (IIa); antibody to 1,2,3,7,8-PeCDF.
As for `c1ccc2cc3c(cc2c1)-c1cccc2cccc-3c12` [Benzo[k]fluoranthene], the cross reaction is reported as below 0.1%.

`Clc1cc(-c2cc(Cl)c(Cl)c(Cl)c2)cc(Cl)c1Cl` [3,3′,4,4′,5,5′-HxCB]: the cross reaction is given as below 0.1%.

For the molecule `c1ccc2c(c1)Cc1ccccc1-2` [Fluorene], the cross reaction is on record as below 0.1%.

With `c1cc2ccc3ccc4ccc5cccc6c(c1)c2c3c4c56` [Benzo[ghi]perylene], the cross reaction is below 0.1%.

Consider `Clc1cccc(Cl)c1` [m-Dichlorobenzene], for which the cross reaction is below 0.1%.

Molecule `Clc1cc2oc3cc(Cl)c(Cl)c(Cl)c3c2cc1Cl` [1,2,3,7,8-PeCDF] had a cross reaction of 100.0%.

Tested on in a further data set: not given
Test: not given
Particulars: toxicity equivalent factor of the dioxins used; cited from earlier work.
As to `Clc1cc2oc3cc(Cl)c(Cl)c(Cl)c3c2c(Cl)c1Cl` [1,2,3,7,8,9-HxCDF], the TEF value is given as 0.1.

Turning to `Clc1cc2oc3cc(Cl)c(Cl)c(Cl)c3c2cc1Cl` [1,2,3,7,8-PeCDF], the TEF value was 0.05.
